Columns and labels:
[1] = target: T1, MS (Pseudomonas aeruginosa, UniProt Q9I636); experiment: DTNB detection of coenzyme A at […] nm; format: biochemical
T1 construct: gene glcB

[2] = target: T2, ICL (Pseudomonas aeruginosa, UniProt Q9I0K4); experiment: absorbance at […] nm, phenylhydrazine assay; format: biochemical
T2 construct: gene PA2634
T2 sequence (Q9I0K4 1-531): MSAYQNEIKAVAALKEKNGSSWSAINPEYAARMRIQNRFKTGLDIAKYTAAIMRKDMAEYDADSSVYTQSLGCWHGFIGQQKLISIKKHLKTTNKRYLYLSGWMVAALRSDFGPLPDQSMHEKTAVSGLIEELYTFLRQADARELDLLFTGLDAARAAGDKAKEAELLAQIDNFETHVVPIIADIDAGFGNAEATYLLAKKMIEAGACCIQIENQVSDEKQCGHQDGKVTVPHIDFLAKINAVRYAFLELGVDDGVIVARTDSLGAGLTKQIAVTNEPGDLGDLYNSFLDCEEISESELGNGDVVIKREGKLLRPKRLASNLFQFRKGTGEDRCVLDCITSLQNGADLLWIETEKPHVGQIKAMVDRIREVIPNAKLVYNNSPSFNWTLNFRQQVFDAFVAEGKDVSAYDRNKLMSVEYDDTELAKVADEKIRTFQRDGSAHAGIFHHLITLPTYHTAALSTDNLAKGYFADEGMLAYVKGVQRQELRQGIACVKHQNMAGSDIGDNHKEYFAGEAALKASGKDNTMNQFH

T1 sequence (Q9I636 whole entry): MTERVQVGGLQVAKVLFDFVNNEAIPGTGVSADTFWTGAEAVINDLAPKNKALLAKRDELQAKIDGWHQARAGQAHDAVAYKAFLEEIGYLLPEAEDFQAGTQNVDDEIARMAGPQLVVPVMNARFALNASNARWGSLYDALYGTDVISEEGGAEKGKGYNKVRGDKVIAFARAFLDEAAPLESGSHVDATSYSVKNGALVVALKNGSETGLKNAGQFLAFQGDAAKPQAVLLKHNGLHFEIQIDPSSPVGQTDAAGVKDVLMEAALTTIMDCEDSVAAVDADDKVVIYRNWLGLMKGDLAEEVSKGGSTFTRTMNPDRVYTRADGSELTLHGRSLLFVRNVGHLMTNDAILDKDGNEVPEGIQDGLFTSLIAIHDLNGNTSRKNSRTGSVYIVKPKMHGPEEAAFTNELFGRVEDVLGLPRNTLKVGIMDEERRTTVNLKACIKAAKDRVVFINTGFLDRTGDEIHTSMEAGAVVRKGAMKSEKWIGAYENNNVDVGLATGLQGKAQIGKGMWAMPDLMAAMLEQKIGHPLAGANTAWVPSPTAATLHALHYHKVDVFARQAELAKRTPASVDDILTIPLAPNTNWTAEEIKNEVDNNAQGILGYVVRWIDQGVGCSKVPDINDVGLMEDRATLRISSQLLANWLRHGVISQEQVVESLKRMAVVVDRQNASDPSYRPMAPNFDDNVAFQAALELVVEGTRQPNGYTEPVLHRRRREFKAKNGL

SMILES	IC50 [1] [nM]	IC50 [2] [nM]
COc1ccccc1N1CCN(CCCNC(=O)C(Cc2ccc(F)c(F)c2)C(C)=O)CC1 (racemic) [compound 2, Compound 2]	1770	240
Nc1nnc(SCc2ccc(O)c3ncccc23)s1 [compound 1, Compound 1]	180	690
CC(C)(C)OC(=O)/N=C(\NC(=O)OC(C)(C)C)Nc1cc(Cl)ccn1 [compound 3, Compound 3]	5300	170
CC(C)(C)OC(=O)NC(=Nc1cc(CCC(=O)O)ccn1)NC(=O)OC(C)(C)C [compound 4, Compound 4]	1290	30
N=C(N)Nc1cccc2ncccc12 [compound 7, Compound 7]	6930	190
N=C(N)Nc1ccc2nn[nH]c2c1 [compound 8, Compound 8]	8880	370

Reference: paper PMC3519852, “Non-Traditional Antibacterial Screening Approaches for the Identification of Novel Inhibitors of the Glyoxylate Shunt in Gram-Negative Pathogens” (PLoS ONE, 2012)
